Patent US20210127673A1, “HERBICIDES” (SYNGENTA PARTICIPATIONS AG, priority 2016, published 2021)

Experiments:
Format in all cases: in vivo
[1] = test system: Echinochloa crus-galli (ECHCG); assay: Pre-emergence herbicidal activity, Echinochloa crus-galli; set-up: key: 5=total damage to plant; 0=no damage to plant; conditions: evaluated after 13 days; for ECHCG damage score (0-5): Test 1b
Outline: (§1)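 Compound is applied as an aqueous spray (acetone/water 50:50, 0.5% Tween 20) to pots one day after sowing, before emergence. Growth continues in a glasshouse at 24/16 °C, 14 h photoperiod, 65% humidity, with twice-daily watering, and injury is graded after 13 days from 0 (no damage) to 5 (total damage).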

Lolium perenne (LOLPE) [2] = assay: Pre-emergence herbicidal activity, Lolium perenne; set-up: key: 5=total damage to plant; 0=no damage to plant; conditions: evaluated after 13 days; for LOLPE damage score (0-5): Test 1b
Outline: as §1

Zea Mays (ZEAMX) [3] = assay: Pre-emergence herbicidal activity, Zea Mays; set-up: key: 5=total damage to plant; 0=no damage to plant; conditions: 1000 g/ha, evaluated after 13 days, Test 1b
Description: (§2) Seeds of a variety of test species were sown in standard soil in pots: Triticum aestivium (TRZAW), Avena fatua (AVEFA), Alopecurus myosuroides (ALOMY), Echinochloa crus-galli (ECHCG), Lolium perenne (LOLPE), Zea Mays (ZEAMX), Abutilon theophrasti (ABUTH), Amaranthus retroflexus (AMARE) and Setaria faberi (SETFA). After cultivation for one day (pre-emergence) under controlled conditions in a glasshouse (at 24/16° C., day/night; 14 hours light; 65% humidity), the plants were sprayed with an aqueous spray solution derived from the formulation of the technical active ingredient in acetone/water (50:50) solution containing 0.5% Tween 20 (polyoxyethelyene sorbitan monolaurate, CAS RN 9005-64-5). The test plants were then grown in a glasshouse under controlled conditions (at 24/16°, day/night; 14 hours light; 65% humidity) and watered twice daily. After 13 days, the test was evaluated (5=total damage to plant; 0=no damage to plant).

[4] = test system: Abutilon theophrasti (ABUTH); assay: Pre-emergence herbicidal activity, Abutilon theophrasti; set-up: key: 5=total damage to plant; 0=no damage to plant; conditions: 1000 g/ha, evaluated after 13 days, Test 1b
Description: as §2

[5] = test system: Amaranthus retroflexus (AMARE); assay: Pre-emergence herbicidal activity, Amaranthus retroflexus; set-up: key: 5=total damage to plant; 0=no damage to plant; conditions: 1000 g/ha, evaluated after 13 days, Test 1b
Description: as §2

Setaria faberi (SETFA) [6] = assay: Pre-emergence herbicidal activity, Setaria faberi; set-up: key: 5=total damage to plant; 0=no damage to plant; conditions: evaluated after 13 days; for SETFA damage score (0-5): Test 1b
Outline: as §1

[7] = test system: Echinochloa crus-galli (ECHCG); assay: Post-emergence herbicidal activity, Echinochloa crus-galli; set-up: key: 5=total damage to plant; 0=no damage to plant; conditions: evaluated after 13 days; for ECHCG damage score (0-5): Test 2b
Outline: (§3)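 Scores (0 no damage to 5 total damage) read 13 d after spraying. Plants sprayed post-emergence 8 d after sowing; spray solution acetone/water 50:50 with 0.5% Tween 20. Growth at 24/16 °C day/night, 14 h light, 65% RH, twice-daily watering.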

Lolium perenne (LOLPE) [8] = assay: Post-emergence herbicidal activity, Lolium perenne; set-up: key: 5=total damage to plant; 0=no damage to plant; conditions: evaluated after 13 days; for LOLPE damage score (0-5): Test 2b
Outline: as §3

Zea Mays (ZEAMX) [9] = assay: Post-emergence herbicidal activity, Zea Mays; set-up: key: 5=total damage to plant; 0=no damage to plant; conditions: 1000 g/ha, evaluated after 13 days, Test 2b
Description: (§4) Seeds of a variety of test species were sown in standard soil in pots: Triticum aestivium (TRZAW), Avena fatua (AVEFA), Alopecurus myosuroides (ALOMY), Echinochloa crus-galli (ECHCG), Lolium perenne (LOLPE), Zea Mays (ZEAMX), Abutilon theophrasti (ABUTH), Amaranthus retroflexus (AMARE) and Setaria faberi (SETFA). After 8 days cultivation (post-emergence) under controlled conditions in a glasshouse (at 24/16° C., day/night; 14 hours light; 65% humidity), the plants were sprayed with an aqueous spray solution derived from the formulation of the technical active ingredient in acetone/water (50:50) solution containing 0.5% Tween 20 (polyoxyethelyene sorbitan monolaurate, CAS RN 9005-64-5). The test plants were then grown in a glasshouse under controlled conditions (at 24/16° C., day/night; 14 hours light; 65% humidity) and watered twice daily. After 13 days, the test was evaluated (5=total damage to plant; 0=no damage to plant).

[10] = test system: Abutilon theophrasti (ABUTH); assay: Post-emergence herbicidal activity, Abutilon theophrasti; set-up: key: 5=total damage to plant; 0=no damage to plant; conditions: 1000 g/ha, evaluated after 13 days, Test 2b
Description: as §4

[11] = test system: Amaranthus retroflexus (AMARE); assay: Post-emergence herbicidal activity, Amaranthus retroflexus; set-up: key: 5=total damage to plant; 0=no damage to plant; conditions: 1000 g/ha, evaluated after 13 days, Test 2b
Description: as §4

Setaria faberi (SETFA) [12] = assay: Post-emergence herbicidal activity, Setaria faberi; set-up: key: 5=total damage to plant; 0=no damage to plant; conditions: evaluated after 13 days; for SETFA damage score (0-5): Test 2b
Outline: as §3

[13] = test system: Triticum aestivium (TRZAW); assay: Pre-emergence herbicidal activity, Triticum aestivium; set-up: key: 5=total damage to plant; 0=no damage to plant; conditions: evaluated after 13 days
Outline: as §1

Avena fatua (AVEFA) [14] = assay: Pre-emergence herbicidal activity, Avena fatua; set-up: key: 5=total damage to plant; 0=no damage to plant; conditions: evaluated after 13 days
Outline: as §1

[15] = test system: Alopecurus myosuroides (ALOMY); assay: Pre-emergence herbicidal activity, Alopecurus myosuroides; set-up: key: 5=total damage to plant; 0=no damage to plant; conditions: evaluated after 13 days
Outline: as §1

[16] = test system: Triticum aestivium (TRZAW); assay: Post-emergence herbicidal activity, Triticum aestivium; set-up: key: 5=total damage to plant; 0=no damage to plant; conditions: evaluated after 13 days
Outline: as §3

Avena fatua (AVEFA) [17] = assay: Post-emergence herbicidal activity, Avena fatua; conditions: evaluated after 13 days
Outline: as §3

[18] = test system: Alopecurus myosuroides (ALOMY); assay: Post-emergence herbicidal activity, Alopecurus myosuroides; set-up: key: 5=total damage to plant; 0=no damage to plant; conditions: evaluated after 13 days
Outline: as §3

Row | SMILES | ECHCG damage score (0-5) ([1]; 1000 g/ha) | LOLPE damage score (0-5) (Lolium perenne (LOLPE) [2]; 1000 g/ha) | ZEAMX damage score (0-5) (Zea Mays (ZEAMX) [3]) | ABUTH damage score (0-5) [4] | AMARE damage score (0-5) [5] | SETFA damage score (0-5) (Setaria faberi (SETFA) [6]; 1000 g/ha) | ECHCG damage score (0-5) ([7]; 1000 g/ha) | LOLPE damage score (0-5) (Lolium perenne (LOLPE) [8]; 1000 g/ha) | ZEAMX damage score (0-5) (Zea Mays (ZEAMX) [9]) | ABUTH damage score (0-5) [10] | AMARE damage score (0-5) [11] | SETFA damage score (0-5) (Setaria faberi (SETFA) [12]; 1000 g/ha) | Control of TRAZW after pre-emergence application (score 0-5) ([13]; 1000 g/ha) | Control of AVEFA after pre-emergence application (score 0-5) (Avena fatua (AVEFA) [14]; 1000 g/ha) | Control of ALOMY after pre-emergence application (score 0-5) ([15]; 1000 g/ha) | Control of ECHCG after pre-emergence application (score 0-5) ([1]; 1000 g/ha) | Control of LOLPE after pre-emergence application (score 0-5) (Lolium perenne (LOLPE) [2]; 1000 g/ha) | Control of SETFA after pre-emergence application (score 0-5) (Setaria faberi (SETFA) [6]; 1000 g/ha) | Control of TRAZW after post-emergence application (score 0-5) ([16]; 1000 g/ha) | Control of AVEFA after post-emergence application (score 0-5) (Avena fatua (AVEFA) [17]; 1000 g/ha) | also measured
1 | CCN(C(=O)OC(C)(C)C)c1ccc(-c2cncc(F)c2)nc1C(F)(F)F [Compound B14] | 0 | 0 | 0 | 4 | 0 | 0 | 2 | 1 | 4 | 0 | 0 | 4 | – | – | – | – | – | – | – | – | –
2 | CC(C)(C)OC(=O)Nc1ccc(-c2cncc(F)c2)nc1C(F)(F)F [Compound B30, tert-butyl N-[6-(5-fluoro-3-pyridyl)-2-(trifluoromethyl)-3-pyridyl]carbamate] | 3 | 1 | 5 | 0 | 2 | 4 | 5 | 4 | 5 | 0 | 0 | 5 | – | – | – | – | – | – | – | – | –
3 | COc1cncc(-c2ccc(N(C)C(=O)OC(C)(C)C)c(C(F)(F)F)n2)c1 [Compound B21] | 0 | 0 | 0 | 1 | 1 | 1 | 2 | 1 | 2 | 0 | 0 | 3 | – | – | – | – | – | – | – | – | –
4 | Cc1cncc(-c2ccc(N(C)C(=O)OC(C)(C)C)c(C(F)(F)F)n2)c1 [Compound B18] | 0 | 0 | 0 | 1 | 1 | 1 | 2 | 1 | 2 | 0 | 0 | 3 | – | – | – | – | – | – | – | – | –
5 | O=C(Nc1cncnc1)Nc1ccc(-c2cncc(F)c2)nc1C(F)(F)F [Compound B70] | – | – | – | – | – | – | – | – | – | – | – | – | 0 | 0 | 0 | 1 | 0 | 2 | 1 | 1 | Control of ALOMY after post-emergence application (score 0-5) ([18]; 1000 g/ha): 0; Control of ECHCG after post-emergence application (score 0-5) ([7]; 1000 g/ha): 3; Control of LOLPE after post-emergence application (score 0-5) (Lolium perenne (LOLPE) [8]; 1000 g/ha): 1; Control of SETFA after post-emergence application (score 0-5) (Setaria faberi (SETFA) [12]; 1000 g/ha): 3
6 | CN(C(=O)OC(C)(C)C)c1ccc(-c2cncc(C#N)c2)nc1C(F)(F)F [Compound B4] | – | – | – | – | – | – | – | – | – | – | – | – | 1 | 0 | 0 | 1 | 0 | 4 | 2 | 2 | Control of ALOMY after post-emergence application (score 0-5) ([18]; 1000 g/ha): 1; Control of ECHCG after post-emergence application (score 0-5) ([7]; 1000 g/ha): 4; Control of LOLPE after post-emergence application (score 0-5) (Lolium perenne (LOLPE) [8]; 1000 g/ha): 1; Control of SETFA after post-emergence application (score 0-5) (Setaria faberi (SETFA) [12]; 1000 g/ha): 5
7 | N#CCCOC(=O)Nc1ccc(-c2cncc(F)c2)nc1C(F)(F)F [Compound B62] | – | – | – | – | – | – | – | – | – | – | – | – | 0 | 2 | 1 | 3 | 1 | 3 | 0 | 3 | Control of ALOMY after post-emergence application (score 0-5) ([18]; 1000 g/ha): 0; Control of ECHCG after post-emergence application (score 0-5) ([7]; 1000 g/ha): 5; Control of LOLPE after post-emergence application (score 0-5) (Lolium perenne (LOLPE) [8]; 1000 g/ha): 2; Control of SETFA after post-emergence application (score 0-5) (Setaria faberi (SETFA) [12]; 1000 g/ha): 4
8 | O=C(Nc1cc(Cl)cc(Cl)c1)Nc1ccc(-c2cncc(F)c2)nc1C(F)(F)F [Compound B88] | – | – | – | – | – | – | – | – | – | – | – | – | – | – | – | – | – | – | – | – | Control of TRAZW after pre-emergence application (score 0-5) ([13]; 250 g/ha): 0; Control of AVEFA after pre-emergence application (score 0-5) (Avena fatua (AVEFA) [14]; 250 g/ha): 0; Control of ALOMY after pre-emergence application (score 0-5) ([15]; 250 g/ha): 0; Control of ECHCG after pre-emergence application (score 0-5) ([1]; 250 g/ha): 1; Control of LOLPE after pre-emergence application (score 0-5) (Lolium perenne (LOLPE) [2]; 250 g/ha): 2; Control of SETFA after pre-emergence application (score 0-5) (Setaria faberi (SETFA) [6]; 250 g/ha): 2; Control of TRAZW after post-emergence application (score 0-5) ([16]; 250 g/ha): 0; Control of AVEFA after post-emergence application (score 0-5) (Avena fatua (AVEFA) [17]; 250 g/ha): 1; Control of ALOMY after post-emergence application (score 0-5) ([18]; 250 g/ha): 0; Control of ECHCG after post-emergence application (score 0-5) ([7]; 250 g/ha): 1; Control of LOLPE after post-emergence application (score 0-5) (Lolium perenne (LOLPE) [8]; 250 g/ha): 0; Control of SETFA after post-emergence application (score 0-5) (Setaria faberi (SETFA) [12]; 250 g/ha): 1
